Source: ChEMBL document CHEMBL3046216, “Synthesis, biological evaluation and QSAR study of a series of substituted quinazolines as antimicrobial agents” (2013)
Converted amounts (≈) assume the structure as drawn. The source made the active and inactive calls. The rule behind the calls is not given here.

Legend:
Assay type in all cases: functional
Escherichia coli = experiment: Antimicrobial activity against Escherichia coli ATCC 25922 assessed as growth inhibition after 24 hr by NCCLS broth dilution method
Bacillus subtilis = experiment: Antimicrobial activity against Bacillus subtilis ATCC 6633 assessed as growth inhibition after 24 hr by NCCLS broth dilution method
Staphylococcus aureus = experiment: Antimicrobial activity against Staphylococcus aureus ATCC 25923 assessed as growth inhibition after 24 hr by NCCLS broth dilution method
Pseudomonas aeruginosa = experiment: Antimicrobial activity against Pseudomonas aeruginosa ATCC 27853 assessed as growth inhibition after 24 hr by NCCLS broth dilution method

| SMILES | MIC (Escherichia coli) | MIC (Escherichia coli; ATCC 25922, 24 h) | MIC (Bacillus subtilis) | MIC (Bacillus subtilis; ATCC 6633, 24 h) | MIC (Staphylococcus aureus) | MIC (Staphylococcus aureus; ATCC 25923, 24 h) | MIC (Pseudomonas aeruginosa) | MIC (Pseudomonas aeruginosa; ATCC 27853, 24 h) |
| --- | --- | --- | --- | --- | --- | --- | --- | --- |
| CN[C@@H]1[C@H](O[C@H]2[C@H](O[C@H]3[C@H](O)[C@@H](O)[C@H](N=C(N)N)[C@@H](O)[C@@H]3N=C(N)N)O[C@@H](C)[C@]2(O)C=O)O[C@@H](CO)[C@H](O)[C@H]1O [STREPTOMYCIN] | inactive | 3.12 mg/L (≈ 5.37 µM) | inactive | 6.25 mg/L (≈ 10.7 µM) | inactive | 6.25 mg/L (≈ 10.7 µM) | inactive | 3.12 mg/L (≈ 5.37 µM) |
| O=C(Nc1ccc2ncnc(Sc3nnc(-c4cccnc4)o3)c2c1)NC1CCCCC1 | inactive | 50 mg/L (≈ 112 µM) | inactive | 50 mg/L (≈ 112 µM) | inactive | 25 mg/L (≈ 55.9 µM) | inactive | 100 mg/L (≈ 223 µM) |
| CN1CCN(c2cc3ncnc(Sc4nnc(-c5cccnc5)o4)c3cc2NC(=O)Nc2ccccc2Cl)CC1 | inactive | 50 mg/L (≈ 87.1 µM) | inactive | 50 mg/L (≈ 87.1 µM) | inactive | 25 mg/L (≈ 43.5 µM) | inactive | 100 mg/L (≈ 174 µM) |
| Fc1ccc(NC(=S)Nc2ccc3ncnc(Sc4nnc(-c5cccnc5)o4)c3c2)cc1 | inactive | 12.5 mg/L (≈ 26.3 µM) | inactive | 6.25 mg/L (≈ 13.1 µM) | inactive | 6.25 mg/L (≈ 13.1 µM) | inactive | 50 mg/L (≈ 105 µM) |
| O=C(NCCc1ccccc1)Nc1ccc2ncnc(Sc3nnc(-c4cccnc4)o3)c2c1 | inactive | 50 mg/L (≈ 106 µM) | inactive | 50 mg/L (≈ 106 µM) | inactive | 12.5 mg/L (≈ 26.6 µM) | inactive | 75 mg/L (≈ 160 µM) |
| CC1(C)S[C@@H]2[C@H](NC(=O)[C@H](N)c3ccccc3)C(=O)N2[C@H]1C(=O)O.O.O.O [AMPICILLIN TRIHYDRATE] | inactive | 10 mg/L | inactive | 0.25 mg/L | inactive | 0.05 mg/L | inactive | – |
| O=C(Nc1ccc(-c2ccccc2)cc1)Nc1ccc2ncnc(Sc3nnc(-c4cccnc4)o3)c2c1 | inactive | 100 mg/L (≈ 193 µM) | inactive | 12.5 mg/L (≈ 24.2 µM) | inactive | 12.5 mg/L (≈ 24.2 µM) | inactive | 75 mg/L (≈ 145 µM) |
| S=C(Nc1ccc2ncnc(Sc3nnc(-c4cccnc4)o3)c2c1)Nc1ccccc1Cl | inactive | 25 mg/L (≈ 50.8 µM) | inactive | 50 mg/L (≈ 102 µM) | inactive | 25 mg/L (≈ 50.8 µM) | inactive | 50 mg/L (≈ 102 µM) |
| Cc1ccccc1NC(=O)Nc1ccc2ncnc(Sc3nnc(-c4cccnc4)o3)c2c1 | inactive | 25 mg/L (≈ 54.9 µM) | inactive | 50 mg/L (≈ 110 µM) | inactive | 25 mg/L (≈ 54.9 µM) | inactive | 75 mg/L (≈ 165 µM) |
| CN1CCN(c2cc3ncnc(Sc4nnc(-c5cccnc5)o4)c3cc2NC(=O)NCCc2ccccc2)CC1 | inactive | 12.5 mg/L (≈ 22 µM) | inactive | 25 mg/L (≈ 44 µM) | inactive | 6.25 mg/L (≈ 11 µM) | inactive | 50 mg/L (≈ 88.1 µM) |
